Assay results: article PMC5441580, “GPR40 partial agonist MK-2305 lower fasting glucose in the Goto Kakizaki rat via suppression of endogenous glucose production” (PLoS ONE, 2017)
Where “and” joins values, the source holds several entries; their conditions need not be identical. Equal values may be shown once.

Columns and labels:
GK rats [1] = experiment: 13C-labeled OGTT, 13C metabolites in liver and skeletal muscle; assay type: in vivo, rat; settings: for 13C Labeled Metabolite, Ala C3 / 13C Labeled Metabolite, G6P C1 / 13C Labeled Metabolite, Glyc C1 / 13C Labeled Metabolite, Lac C3: [1-13C] glucose, acute treatment, individual animals
Method: GK rat OGTT procedures were followed as above. Animals were treated PO at 5 ml/kg with MK-2305 at 10 mg/kg or vehicle at time = -60 min. At time = 0, animals were challenged PO at 10 ml/kg dose volume with [1-^13C] glucose prepared in distilled water at 1 g/kg (Sigma-Aldrich). Blood glucose was measured pre-treatment and at t = 0, 20, 40, 60, 120 minutes post challenge. Following the blood glucose measurement at time = 120 min, animals were anesthetized with Isoflurane (Isothesia, Henry Schein, Dublin, OH) and samples of liver and skeletal muscle were collected. Tissue samples were processed using a methanol/water based extraction procedure as follows. Frozen tissue was weighed and added to tubes containing 80% methanol at a ratio of 100 mg tissue per mL 80% methanol. The samples were homogenized at 4°C using a Polytron homogenizer equipped with a 12 mm stainless steel head. Samples were then centrifuged at 25,000 rcf for 10 min at 4°C, the supernatant collected, and the pellet extracted again using an equivalent volume of 80% methanol. The supernatants from both extractions were pooled and the methanol evaporated under nitrogen. The samples were then reconstituted in 180 μl 0.1M sodium phosphate in D2O (pH 7.4) for NMR analysis. ^13C NMR of tissue extracts was performed on a 600 MHz Bruker NMR spectrometer (David H. Murdock Research Institute) using the following parameters: 45° pulse, D1 = 0.2 sec, NS = 3200 averages, ^1H broadband decoupling (WALTZ-16), acquisition time ~45 min. […] These NMR signals were integrated and converted to absolute units (μmoles) using ^13C NMR spectra from standard solutions of each metabolite of known concentration acquired under identical conditions. Glycogen is a primary site of glucose disposal in both liver and muscle, however glycogen was not preserved in our tissue extraction protocol. To quantify tissue ^13C-glycogen, a separate piece of tissue from each sample was analyzed. Briefly, tissue samples were saponified in hot KOH, and this was followed by glycogen precipitation with NaSO4 and ethanol, and then degradation with amyloglucosidase. The resulting glycogen-derived glucose solution was analyzed for total glucose using a glucose oxidase / horseradish peroxidase assay kit and fluorescence-based product detection according to the manufacturers’ instructions (BioVision Glycogen Assay Kit, Milpitas, CA).

GK rats [2] = experiment: GK rat acute oral glucose tolerance test (OGTT) with insulin co-measurement; assay type: in vivo; parameters: Blood Glucose AUC / Insulin AUC: unit not given here
Method: On the day of the study, male GK rats were bled via tail snip, and blood glucose was measured via glucometer (OneTouch Ultra, Lifescan Inc., Milpitas, CA). Fed glucose was measured at 8 A.M. (lights on 7 A.M.– 7 P.M.) and used to select and sort animals into treatment groups (n = 8/ GK group, plus n = 6/WKY control group). Animals were then placed into clean cages, and food was removed. […] Dosages from 0.3–10 mg MK-2305 / kg body weight were tested. Both the GK and WKY control groups received vehicle (0.5% methylcellulose). Blood glucose was measured again (time = 0) immediately prior to a dextrose challenge of 1 g/kg at 10 ml/kg dose volume (Dextrose, Hospira Inc., Lake Forrest IL) and then again at 20, 40, 60, and 120 min after the glucose challenge. Insulin was co-measured to test the glucose-dependent secretory response to MK-2305 delivered acutely PO. […] […] Values of percent inhibition vs. vehicle for each treatment were generated from the AUC data. Maximally efficacious dose (MED) was defined as the minimum dosage generating a maximum inhibition of glucose excursion achieved with this compound in the OGTT assay.
Plasma was analyzed for triglycerides, NEFA, and HbA1C using a P Modular Roche Clinical Chemistry analyzer. Liver triglycerides were extracted as described by Bligh and Dyer, and were measured using the Infinity triglyceride assay kit (Thermo Scientific, Rockford, IL). Plasma insulin levels were measured via EIA (Mesoscale Discovery ELISA Kit, Gaithersburg MD).

[3] = 10 mg/kg PO, [1-13C] glucose OGTT, GK rats
[4] = 10 mg/kg PO, GK rats, p < 0.001
[5] = 0.3 mpk PO, 60 min after glucose challenge, individual GK rats

O=C1NC(=O)C(C2CCOc3cc(Oc4ccc(C(F)(F)F)cc4Cl)ccc32)S1 (stereo not shown) [MK-2305]
effect on disposal of 13C-glucose into 13C-G6P, 13C-glycogen, 13C-lactate and 13C-alanine in liver (GK rats [1]; [3]): significant decreases | effect on disposal of 13C-glucose into metabolites in muscle (GK rats [1]; [3]): no significant effects | 13C Labeled Metabolite, Ala C3 (GK rats [1]): 0.07795 umoles/g liver and 0.1076 umoles/g liver and 0.03915 umoles/g liver and 0.01144 umoles/g liver and 0.01402 umoles/g liver and 0.02433 umoles/g liver and 0.05001 umoles/g liver and 0.007673 umoles/g liver | 13C Labeled Metabolite, G6P C1 (GK rats [1]): 0.02684 umoles/g liver and 0.01164 umoles/g liver and 0.007287 umoles/g liver and 0.01533 umoles/g liver and 0.00988 umoles/g liver and 0.01421 umoles/g liver and 0.01349 umoles/g liver and 0.0107 umoles/g liver | 13C Labeled Metabolite, Glyc C1 (GK rats [1]): 1.292 umoles/g liver and 0.3555 umoles/g liver and 0.1582 umoles/g liver and 0.4672 umoles/g liver and 0.1107 umoles/g liver and 0.1399 umoles/g liver and 0.3766 umoles/g liver and 0.2884 umoles/g liver | 13C Labeled Metabolite, Lac C3 (GK rats [1]): 0.03897 umoles/g liver and 0.06288 umoles/g liver and 0.02257 umoles/g liver and 0.01974 umoles/g liver and 0.01299 umoles/g liver and 0.02143 umoles/g liver and 0.0406 umoles/g liver and 0.007673 umoles/g liver | 13C Labeled Metabolite, Ala C3 (GK rats [1]; skeletal muscle): 0.1279 umoles/g muscle and 0.07989 umoles/g muscle and 0.1157 umoles/g muscle and 0.07123 umoles/g muscle | 13C Labeled Metabolite, G6P C1 (GK rats [1]; skeletal muscle): 0.05019 umoles/g muscle and 0.01903 umoles/g muscle and 0.04767 umoles/g muscle and 0.01045 umoles/g muscle and 0.004493 umoles/g muscle and 0.01768 umoles/g muscle and 0.003514 umoles/g muscle | 13C Labeled Metabolite, Glyc C1 (GK rats [1]; skeletal muscle): 0.2857 umoles/g muscle and 0.133 umoles/g muscle and 1.635 umoles/g muscle and 0.328 umoles/g muscle and 0.06707 umoles/g muscle and 0.1828 umoles/g muscle and 0.4005 umoles/g muscle | 13C Labeled Metabolite, Lac C3 (GK rats [1]; skeletal muscle): 0.2756 umoles/g muscle and 0.03448 umoles/g muscle and 0.06757 umoles/g muscle and 0.07739 umoles/g muscle and 0.08426 umoles/g muscle | decrease of glucose AUC vs. vehicle in OGTT (GK rats [2]; 0.3 mg/kg PO, GK rats, p < 0.001): 18% | increase in plasma insulin vs. vehicle during OGTT (GK rats [2]; 1 mg/kg PO, GK rats, p < 0.001): 59% | increase in plasma insulin vs. vehicle during OGTT (GK rats [2]; 3 mg/kg PO, GK rats, p < 0.001): 83% | reduction in glucose AUC from vehicle in OGTT (GK rats [2]; 3 mg/kg PO, GK rats, p < 0.001): 40% | decrease of glucose AUC vs. vehicle in OGTT (GK rats [2]; [4]): 54% | increase in plasma insulin vs. vehicle during OGTT (GK rats [2]; [4]): 124% | Blood Glucose (GK rats [2]; 0.3 mpk PO, 40 min after glucose challenge, individual GK rats): 254 mg/dl and 284 mg/dl and 328 mg/dl and 294 mg/dl (2×) and 264 mg/dl and 219 mg/dl and 321 mg/dl | Blood Glucose (GK rats [2]; [5]): 197 mg/dL and 204 mg/dL and 264 mg/dL and 233 mg/dL and 229 mg/dL and 270 mg/dL and 209 mg/dL and 330 mg/dL | Insulin (plasma) (GK rats [2]; [5]): 1.219 ng/mL and 1.901 ng/mL and 1.676 ng/mL and 1.551 ng/mL and 1.782 ng/mL and 1.959 ng/mL and 1.355 ng/mL and 1.696 ng/mL | Blood Glucose (GK rats [2]; 0.3 mpk PO, 120 min after glucose challenge, individual GK rats): 149 mg/dL and 196 mg/dL and 217 mg/dL and 188 mg/dL and 177 mg/dL and 203 mg/dL and 145 mg/dL and 249 mg/dL | Insulin AUC (GK rats [2]; 0.3 mpk PO, OGTT t = 0 to 60 min, individual GK rats): 107.011 and 73.5773 and 77.5052 and 96.9965 and 105.345 and 92.3289 and 113.426 and 113.509 | Blood Glucose AUC (GK rats [2]; 0.3 mpk PO, OGTT t = 0 to 120 min, individual GK rats): 30355 and 22170 and 34265 and 24465 and 25900 and 30390 and 27140 and 25850 | Insulin (plasma) (GK rats [2]; 0.3 mpk PO, time 0 min (before glucose challenge), individual GK rats): 1.527 ng/mL and 1.4 ng/mL and 1.238 ng/mL and 1.748 ng/mL and 1.648 ng/mL and 1.595 ng/mL and 1.041 ng/mL and 1.268 ng/mL | Insulin (plasma) (GK rats [2]; 0.3 mpk PO, time -70 min (before dosing), individual GK rats): 0.785 ng/mL and 1.027 ng/mL and 1.247 ng/mL and 1.425 ng/mL and 1.262 ng/mL and 0.879 ng/mL and 0.539 ng/mL and 0.638 ng/mL | Blood Glucose (GK rats [2]; 1 mpk PO, 40 min after glucose challenge, individual GK rats): 191 mg/dL and 247 mg/dL and 193 mg/dL and 178 mg/dL and 222 mg/dL and 184 mg/dL and 221 mg/dL and 228 mg/dL
